Where two headings read alike, the source gives them in different places. Where a SMILES comes first, the peptide text is derived from it. Bridges are numbered along the chain shown (N, C = ends). Roman numbers before positions name the chains, in order. [ ]: non-standard residue; d: D form. Tle = CC(C)(C)[C@H](N)C(=O)O; dDab = NCC[C@@H](N)C(=O)O; Nle = CCCC[C@H](N)C(=O)O; Orn = NCCC[C@H](N)C(=O)O; Dab = NCC[C@H](N)C(=O)O; Dap = NC[C@H](N)C(=O)O; Sar = CNCC(=O)O
Assays:
Format in all cases: cell-based
[1] = test system: Acinetobacter baumannii 872842
[2] = test system: Klebsiella pneumoniae SSI #3010
How it was run: (§1)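 Inocula standardised to a 0.5 McFarland reference and diluted to about 10^6 CFU/mL in MH-II broth are incubated with two-fold peptide series containing 0.002% polysorbate 80. No visible growth after 18-20 hours at 35° C defines the MIC, in μg/mL.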

[3] = test system: Pseudomonas aeruginosa ATCC 27853
How it was run: as §1

Escherichia coli 926415 = test system: Escherichia coli 926415
[4] = test system: Klebsiella pneumoniae 968733
[5] = test system: Acinetobacter baumannii DSM 30008
How it was run: as §1

[6] = test system: Escherichia coli ATCC 25922
How it was run: as §1

[7] = test system: human red blood cells (hRBC); experiment: Hemolysis of human red blood cells
How it was run: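 Percent lysis of washed human erythrocytes after 1 h at 37° C. with 100 μg/mL peptide, calculated from OD540 of 8-fold diluted supernatant as a fraction of the 2.5% Triton X-100 value.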

[8] = red cells of human, 1 h, 100 μg/mL
[9] = clinical isolate, Mueller-Hinton II broth, P-80 0.002% present

Structure (SMILES)	Acinetobacter baumannii 872842 MIC [1]; 872842 [µg/mL]	Klebsiella pneumoniae SSI #3010 MIC ([2]; SSI #3010) [µg/mL]	Pseudomonas aeruginosa ATCC 27853 MIC ([3]; ATCC 27853) [µg/mL]	Escherichia coli 926415 MIC (Escherichia coli 926415; 926415) [µg/mL]	Klebsiella pneumoniae 968733 MIC [4]; 968733 [µg/mL]	Acinetobacter baumannii DSM 30008 MIC ([5]; DSM 30008) [µg/mL]	Escherichia coli ATCC 25922 MIC ([6]; ATCC 25922) [µg/mL]	Hemolysis at 100 μg/mL [7, 8] [%]	Hemolysis at 100 μg/mL ([7]; red cells of human, 1 h, 100) [%]	Acinetobacter baumannii 872842 MIC [1, 9] [µg/mL]	Klebsiella pneumoniae SSI #3010 MIC ([2]; Mueller-Hinton II broth) [µg/mL]	Pseudomonas aeruginosa ATCC 27853 MIC ([3]; Mueller-Hinton II broth) [µg/mL]	Escherichia coli 926415 MIC (Escherichia coli 926415; [9]) [µg/mL]	Klebsiella pneumoniae 968733 MIC [4, 9] [µg/mL]	Acinetobacter baumannii DSM 30008 MIC ([5]; Mueller-Hinton II broth) [µg/mL]	Escherichia coli ATCC 25922 MIC ([6]; Mueller-Hinton II broth) [µg/mL]	Hemolysis at 100 μg/mL ([7]; 100 μg/mL, 20% hRBC, 1 h at 37° C.) [%]
CCCC[C@@H]1NC(=O)[C@@H]2CCCN2C(=O)[C@H]2CCCN2C(=O)[C@H](C(C)C)NC(=O)[C@H](C)NC(=O)[C@H](Cc2ccc(O)cc2)NC(=O)[C@@H](NC(=O)[C@H](Cc2c[nH]c3ccccc23)NC(C)=O)CSSC[C@@H](C(=O)N[C@@H](CCCN)C(=O)N[C@@H](CCN)C(=O)N[C@H]2CCNC(=O)[C@H]([C@@H](C)O)NC(=O)[C@H](CCN)NC(=O)[C@H](CCN)NC(=O)[C@H](CC(C)C)NC(=O)[C@@H](Cc3ccccc3)NC(=O)[C@H](CCN)NC2=O)NC(=O)[C@H](Cc2ccc(O)cc2)NC(=O)[C@H](CO)NC1=O [Ex. 52] (Ac-WCYAV[dP]P[Nle]SYC[Orn][Dab][Dab][Dab][dF]L[Dab][Dab]T; disulfide 2-11; lactam 14-C)	4	0.5	4	3	2	0.5	0.5	2	–	–	–	–	–	–	–	–	–
CC(C)C[C@@H]1NC(=O)[C@@H](CC(C)C)NC(=O)[C@H](CCN)NC(=O)[C@@H](NC(=O)[C@H](CCN)NC(=O)[C@H](CCN)NC(=O)[C@@H](NC(=O)[C@H](CCCN)NC(=O)[C@@H]2CSSC[C@H](NC(=O)[C@@H](N)Cc3c[nH]c4ccccc34)C(=O)N[C@@H](C(C)C)C(=O)N[C@@H](Cc3ccc(O)cc3)C(=O)N[C@@H](CO)C(=O)N3CCC[C@@H]3C(=O)N3CCC[C@H]3C(=O)N[C@@H](CC(C)C)C(=O)N[C@@H](CC(=O)O)C(=O)N[C@@H](Cc3ccc(O)cc3)C(=O)N2)[C@@H](C)O)CCNC(=O)[C@H]([C@@H](C)O)NC(=O)[C@H](CCN)NC(=O)[C@H](CCN)NC1=O [Ex. 151] (H-WCVYS[dP]PLDYC[Orn]T[Dab][Dab][Dab][Dab][dL]L[Dab][Dab]T; disulfide 2-11; lactam 16-C)	0.5	1	0.5	2	8	1	0.25	<1	–	–	–	–	–	–	–	–	–
CCCC[C@@H]1NC(=O)[C@@H]2CCCN2C(=O)[C@H]2CCCN2C(=O)[C@H](CO)NC(=O)[C@H](C)NC(=O)[C@H](C(C)(C)C)NC(=O)[C@H](CCN)NC(=O)[C@H](Cc2c[nH]c3ccccc23)NC(=O)[C@H](CCN)NC(=O)[C@H](CCC(=O)N[C@@H](CCN)C(=O)N[C@H](CCN)C(=O)N[C@H]2CCNC(=O)[C@H]([C@@H](C)O)NC(=O)[C@H](CCN)NC(=O)[C@H](CCN)NC(=O)[C@H](CC(C)C)NC(=O)[C@@H](CC(C)C)NC(=O)[C@H](CCN)NC2=O)NC(=O)[C@H](CCCN)NC(=O)[C@H](CCN)NC(=O)[C@H](Cc2ccc(O)cc2)NC(=O)[C@H](CO)NC1=O [Ex. 78] (I: cyclo([Nle]SY[Dab][Orn]E[Dab]W[Dab][Tle]AS[dP]P) / II: [Dab][dDab][Dab][Dab][dL]L[Dab][Dab]T; amide I:6-II:N; lactam II:3-II:C)	1	0.5	0.25	0.5	0.5	0.5	0.5	–	1	–	–	–	–	–	–	–	–
CC(C)C[C@@H]1NC(=O)[C@@H](CC(C)C)NC(=O)[C@H](CCN)NC(=O)[C@@H](NC(=O)[C@H](CCN)NC(=O)[C@@H](NC(=O)[C@H](CCN)NC(=O)CC[C@@H]2NC(=O)[C@@H]3CSSC[C@H](NC(=O)[C@H](Cc4c[nH]c5ccccc45)NC(=O)[C@H](CCN)NC(=O)[C@@H](CCN)NC2=O)C(=O)N[C@@H](C(C)(C)C)C(=O)N[C@@H]([C@@H](C)O)C(=O)N[C@@H](CO)C(=O)N2CCC[C@@H]2C(=O)N2CCC[C@H]2C(=O)N[C@@H](CC(C)C)C(=O)N[C@@H](CO)C(=O)N[C@@H](Cc2ccc(O)cc2)C(=O)N3)[C@@H](C)O)CCNC(=O)[C@H]([C@@H](C)O)NC(=O)[C@H](CCN)NC(=O)[C@H](CCN)NC1=O [Ex. 98] (I: cyclo(LSYCE[dDab][Dab]WC[Tle]TS[dP]P) / II: [Dab]T[Dab][Dab][Dab][dL]L[Dab][Dab]T; disulfide I:4-I:9; amide I:5-II:N; lactam II:4-II:C)	–	–	–	–	–	–	–	–	–	0.25	0.125	0.25	0.5	0.5	0.0625	0.125	2
CC(=O)N[C@@H](Cc1c[nH]c2ccccc12)C(=O)N[C@H]1CSSC[C@@H](C(=O)N[C@@H](CCCN)C(=O)N[C@H](CCN)C(=O)N[C@@H](CCN)C(=O)N[C@@H](CCN)C(=O)N[C@H]2CCNC(=O)[C@H]([C@@H](C)O)NC(=O)[C@H](CCN)NC(=O)[C@H](CCN)NC(=O)[C@H](CC(C)C)NC(=O)[C@@H](Cc3ccccc3)NC(=O)[C@H](CCN)NC2=O)NC(=O)[C@H](Cc2ccc(O)cc2)NC(=O)[C@H](CN)NC(=O)[C@H](Cc2ccccc2)NC(=O)[C@H](Cc2ccccc2)NC(=O)[C@H]2CCCN2C(=O)[C@H](CO)NC(=O)[C@H](C)NC(=O)[C@H](C(C)(C)C)NC1=O [Ex. 137] (Ac-WC[Tle]AS[dP]FF[Dap]YC[Orn][dDab][Dab][Dab][Dab][Dab][dF]L[Dab][Dab]T; disulfide 2-11; lactam 16-C)	0.5	0.5	1	0.5	0.5	0.5	0.25	4	–	–	–	–	–	–	–	–	–
CC(C)C[C@@H]1NC(=O)[C@H](CO)NC(=O)[C@H](Cc2ccc(O)cc2)NC(=O)[C@@H]2CCCN2C(=O)[C@H]2CCCN2C(=O)[C@H](Cc2c[nH]cn2)NC(=O)[C@H](C)NC(=O)[C@H](C(C)C)NC(=O)[C@@H](NC(=O)[C@@H](N)CC(C)C)CSSC[C@@H](C(=O)NCC(=O)N[C@@H](CCN)C(=O)N[C@H](C(=O)N[C@@H](CCN)C(=O)N[C@H]2CCNC(=O)[C@H]([C@@H](C)O)NC(=O)[C@H](CCN)NC(=O)[C@H](CCN)NC(=O)[C@H](CC(C)C)NC(=O)[C@@H](CC(C)C)NC(=O)[C@H](CCN)NC2=O)[C@@H](C)O)NC1=O [Ex. 156] (H-LCVAH[dP]PYSLCG[Dab]T[Dab][Dab][Dab][dL]L[Dab][Dab]T; disulfide 2-11; lactam 16-C)	0.0625	0.125	0.25	1	0.5	0.125	0.125	<1	–	–	–	–	–	–	–	–	–
CC(C)C[C@@H]1NC(=O)[C@@H](CC(C)C)NC(=O)[C@H](CCN)NC(=O)[C@@H](NC(=O)[C@H](CCN)NC(=O)CN(C)C(=O)C[C@@H]2NC(=O)[C@H](CCN)NC(=O)[C@H](Cc3ccc(O)cc3)NC(=O)[C@H](CO)NC(=O)[C@H](CC(C)C)NC(=O)[C@@H]3CCCN3C(=O)[C@H]3CCCN3C(=O)[C@H](CO)NC(=O)[C@H](C)NC(=O)[C@H](C(C)C)NC(=O)[C@H](CCN)NC(=O)[C@H](Cc3c[nH]c4ccccc34)NC(=O)[C@H](CCN)NC(=O)[C@@H](CCN)NC2=O)CCNC(=O)[C@H]([C@@H](C)O)NC(=O)[C@H](CCN)NC(=O)[C@H](CCN)NC1=O [Ex. 76] (I: cyclo(W[Dab]VAS[dP]PLSY[Dab]D[dDab][Dab]) / II: [Sar][Dab][Dab][Dab][dL]L[Dab][Dab]T; amide I:12-II:N; lactam II:3-II:C)	0.5	2	0.5	0.5	2	1	2	–	1	–	–	–	–	–	–	–	–
CC(C)C[C@@H]1NC(=O)[C@@H](CC(C)C)NC(=O)[C@H](CCN)NC(=O)[C@@H](NC(=O)[C@H](CCN)NC(=O)[C@H](CCN)NC(=O)[C@@H]2CCC(=O)N[C@@H](CCN)C(=O)N[C@@H](Cc3c[nH]c4ccccc34)C(=O)N[C@H]3CSSC[C@H](NC(=O)[C@H](Cc4ccc(O)cc4)NC(=O)[C@H](CO)NC(=O)[C@H](CC(C)C)NC(=O)[C@@H]4CCCN4C(=O)[C@H]4CCCN4C(=O)[C@H](CO)NC(=O)[C@H](C)NC(=O)[C@H](C(C)C)NC3=O)C(=O)NCC(=O)N2)CCNC(=O)[C@H]([C@@H](C)O)NC(=O)[C@H](CCN)NC(=O)[C@H](CCN)NC1=O [Ex. 79] ([Dab]WCVAS[dP]PLSYCGE[Dab][Dab][Dab][Dab][dL]L[Dab][Dab]T; disulfide 3-12; lactam 17-C, N-14)	2	1	0.5	2	8	0.5	0.5	<1	–	–	–	–	–	–	–	–	–

— patent publication US10829520B2, “Beta-hairpin peptidomimetics” (POLYPHOR AG, priority 2015, dated 2020)
